The target of assay [1] is Sodium-dependent noradrenaline transporter (Homo sapiens, UniProt P23975). Kind of assay: DRUGMATRIX: Norepinephrine Transporter radioligand binding (ligand: [125I] RTI-55). In kind it is cell membranes, MDCK, Membrane. The settings on record: mdck; Not Active = under 50% inhibition at 10 µM.
Assay [2] can be described thus: DRUGMATRIX: Sodium/nucleoside co-transporter radioligand binding (ligand: nitrobenzylthioinosine). Particulars: Not Active = under 50% inhibition at 10 µM. It counts as cell membranes, Cavia porcellus, Dunkin-Hartley, Cerebral cortex, Membrane.
Assay [3] concerns the target T1, Type-2 angiotensin II receptor (Homo sapiens, UniProt P50052). Note: in other assays of this panel Not Active means under 50% inhibition at 10 µM.
T1 sequence (P50052 whole entry): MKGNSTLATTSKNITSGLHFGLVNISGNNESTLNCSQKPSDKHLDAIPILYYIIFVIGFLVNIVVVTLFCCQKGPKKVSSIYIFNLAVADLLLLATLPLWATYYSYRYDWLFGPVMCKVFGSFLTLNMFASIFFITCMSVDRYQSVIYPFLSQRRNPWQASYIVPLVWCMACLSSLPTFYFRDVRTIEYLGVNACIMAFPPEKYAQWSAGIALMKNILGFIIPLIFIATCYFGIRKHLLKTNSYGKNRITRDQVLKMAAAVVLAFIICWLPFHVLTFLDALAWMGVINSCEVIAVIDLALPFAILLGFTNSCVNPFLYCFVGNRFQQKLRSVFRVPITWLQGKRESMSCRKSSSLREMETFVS
It counts as cell-based. The settings on record: cho-k1.

The target of assay [4] is 5-hydroxytryptamine receptor 2B (Homo sapiens, UniProt P41595). In kind it is cell membranes, CHO-K1, Membrane. Note: in other assays of this panel Not Active means under 50% inhibition at 10 µM.
Sequence of 5-hydroxytryptamine receptor 2B (P41595 whole entry): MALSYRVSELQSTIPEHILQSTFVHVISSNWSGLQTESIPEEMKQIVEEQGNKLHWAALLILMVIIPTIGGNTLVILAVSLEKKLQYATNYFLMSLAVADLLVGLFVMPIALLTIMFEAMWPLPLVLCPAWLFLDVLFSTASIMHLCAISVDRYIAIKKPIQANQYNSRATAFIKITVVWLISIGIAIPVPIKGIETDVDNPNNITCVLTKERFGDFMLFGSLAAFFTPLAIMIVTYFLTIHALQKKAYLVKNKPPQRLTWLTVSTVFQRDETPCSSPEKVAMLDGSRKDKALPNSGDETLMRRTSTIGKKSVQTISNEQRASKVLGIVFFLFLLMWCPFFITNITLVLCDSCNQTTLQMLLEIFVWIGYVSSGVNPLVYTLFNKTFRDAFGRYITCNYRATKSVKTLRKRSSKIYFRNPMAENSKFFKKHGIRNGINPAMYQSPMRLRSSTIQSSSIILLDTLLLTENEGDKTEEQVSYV
For assay [5], the target named is T2, 5-hydroxytryptamine receptor 1A (Rattus norvegicus, UniProt P19327). Note: in other assays of this panel Not Active means under 50% inhibition at 10 µM.
T2 sequence (P19327 whole entry): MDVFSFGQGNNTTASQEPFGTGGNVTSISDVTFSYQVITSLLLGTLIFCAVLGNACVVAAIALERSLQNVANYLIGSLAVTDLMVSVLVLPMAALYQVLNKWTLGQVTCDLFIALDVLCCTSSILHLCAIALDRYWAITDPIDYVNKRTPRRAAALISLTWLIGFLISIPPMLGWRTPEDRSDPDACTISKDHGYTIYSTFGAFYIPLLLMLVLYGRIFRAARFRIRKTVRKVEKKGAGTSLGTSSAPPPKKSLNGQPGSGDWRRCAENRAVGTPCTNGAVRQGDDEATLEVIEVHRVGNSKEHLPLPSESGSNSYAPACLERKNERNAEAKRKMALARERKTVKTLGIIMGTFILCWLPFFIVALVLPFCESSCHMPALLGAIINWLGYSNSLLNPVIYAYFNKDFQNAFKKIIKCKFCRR
It counts as cell membranes, Membrane. The settings on record: cho-k1.

Assay [6] addresses Protein phosphatase 3 catalytic subunit alpha (Homo sapiens, UniProt Q08209). The arrangement: species or system Escherichia coli.
Another assay addresses T3, Neutrophil elastase (Homo sapiens, UniProt P08246).
T3 sequence (P08246 whole entry): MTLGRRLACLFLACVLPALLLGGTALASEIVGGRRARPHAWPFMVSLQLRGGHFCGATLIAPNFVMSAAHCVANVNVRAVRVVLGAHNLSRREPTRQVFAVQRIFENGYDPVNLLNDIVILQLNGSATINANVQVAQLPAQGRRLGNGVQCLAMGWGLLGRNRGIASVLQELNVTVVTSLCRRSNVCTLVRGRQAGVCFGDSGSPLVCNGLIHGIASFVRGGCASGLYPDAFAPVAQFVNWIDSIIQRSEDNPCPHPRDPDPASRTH
It counts as tissue-based.

For assay [7], the target named is T4, Receptor-type tyrosine-protein phosphatase C (Homo sapiens, UniProt P08575).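 Note: inhibition of CD45 enzyme activity measured using DiFMUP as substrate; in other assays of this panel Not Active means under 50% inhibition at 10 µM.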
T4 sequence (P08575 whole entry): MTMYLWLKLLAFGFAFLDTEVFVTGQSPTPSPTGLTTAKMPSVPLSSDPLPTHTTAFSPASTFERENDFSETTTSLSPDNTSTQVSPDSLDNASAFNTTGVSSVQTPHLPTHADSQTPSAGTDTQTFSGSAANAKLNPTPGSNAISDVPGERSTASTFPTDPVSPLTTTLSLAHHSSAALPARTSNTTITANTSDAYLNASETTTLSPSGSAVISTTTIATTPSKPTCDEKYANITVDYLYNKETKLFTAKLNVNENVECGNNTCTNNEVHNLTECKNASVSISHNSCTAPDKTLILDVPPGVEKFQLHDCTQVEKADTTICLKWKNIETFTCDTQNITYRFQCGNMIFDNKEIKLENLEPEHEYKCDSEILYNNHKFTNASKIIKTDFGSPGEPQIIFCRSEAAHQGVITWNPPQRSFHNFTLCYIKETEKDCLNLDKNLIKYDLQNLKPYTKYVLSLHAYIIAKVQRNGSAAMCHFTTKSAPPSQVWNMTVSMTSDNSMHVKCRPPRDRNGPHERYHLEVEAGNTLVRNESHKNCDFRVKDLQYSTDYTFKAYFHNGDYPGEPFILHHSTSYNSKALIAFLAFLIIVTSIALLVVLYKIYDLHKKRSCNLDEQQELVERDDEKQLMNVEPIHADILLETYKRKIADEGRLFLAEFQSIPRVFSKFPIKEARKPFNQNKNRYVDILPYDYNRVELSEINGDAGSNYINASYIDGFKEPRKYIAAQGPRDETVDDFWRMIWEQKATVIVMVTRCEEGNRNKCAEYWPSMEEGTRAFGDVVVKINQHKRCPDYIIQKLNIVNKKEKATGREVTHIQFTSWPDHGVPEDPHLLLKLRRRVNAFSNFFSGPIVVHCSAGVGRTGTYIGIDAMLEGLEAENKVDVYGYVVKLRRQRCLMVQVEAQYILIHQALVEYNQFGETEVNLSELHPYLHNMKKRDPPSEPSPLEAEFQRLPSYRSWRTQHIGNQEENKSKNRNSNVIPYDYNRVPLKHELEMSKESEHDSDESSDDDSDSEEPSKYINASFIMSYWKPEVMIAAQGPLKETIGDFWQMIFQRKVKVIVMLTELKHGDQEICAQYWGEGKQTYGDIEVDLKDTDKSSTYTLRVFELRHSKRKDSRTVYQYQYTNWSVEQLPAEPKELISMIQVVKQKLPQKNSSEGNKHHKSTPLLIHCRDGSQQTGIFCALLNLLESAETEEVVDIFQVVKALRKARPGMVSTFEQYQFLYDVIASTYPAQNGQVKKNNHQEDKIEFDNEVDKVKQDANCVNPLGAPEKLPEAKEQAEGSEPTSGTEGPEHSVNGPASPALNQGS
More on the design: species or system Escherichia coli.

Sequence of Sodium-dependent noradrenaline transporter (P23975 whole entry): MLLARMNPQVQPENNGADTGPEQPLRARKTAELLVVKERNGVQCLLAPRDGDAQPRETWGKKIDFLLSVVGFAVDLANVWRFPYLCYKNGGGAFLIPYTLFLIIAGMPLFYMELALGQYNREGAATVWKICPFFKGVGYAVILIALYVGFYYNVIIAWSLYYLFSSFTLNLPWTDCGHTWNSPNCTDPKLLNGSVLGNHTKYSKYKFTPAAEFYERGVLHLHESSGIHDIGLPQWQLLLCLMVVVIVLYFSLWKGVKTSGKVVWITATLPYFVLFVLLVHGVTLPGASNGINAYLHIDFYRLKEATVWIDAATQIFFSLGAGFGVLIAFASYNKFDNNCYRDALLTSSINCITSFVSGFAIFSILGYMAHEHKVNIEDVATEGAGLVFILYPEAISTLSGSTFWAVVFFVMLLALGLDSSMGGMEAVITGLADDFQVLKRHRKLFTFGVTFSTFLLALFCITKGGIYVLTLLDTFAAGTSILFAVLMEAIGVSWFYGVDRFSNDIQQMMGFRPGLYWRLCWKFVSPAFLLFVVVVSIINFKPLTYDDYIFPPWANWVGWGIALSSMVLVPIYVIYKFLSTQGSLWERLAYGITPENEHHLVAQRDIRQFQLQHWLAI

As to `S=C=Nc1cccc2ccccc12` [1-NAPHTHYLISOTHIOCYANATE], the IC50 result is “Not Active” in assay [1]; “Not Active” in assay [2]; “Not Active” in assay [3]; 25.2 µM in assay [4] (read-out: IC50); “Not Active” in assay [5]; “Not Active” in assay [6]. For the same molecule, the IC50 result (against Neutrophil elastase; in assay [7]) was “Not Active” in each case. The Ki result in assay [2] was “Not Active”; in assay [4] (read-out: Ki), 16 µM.

Regarding `CCCC(=O)Nc1ccc(OCC(O)CNC(C)C)c(C(C)=O)c1` (stereo not given) [ACEBUTOLOL], the IC50 entry in assay [1], in assay [2], in assay [3], in assay [4] (cho-k1), in assay [5] and in assay [6] was “Not Active” throughout. Also, the IC50 entry (at Neutrophil elastase; in assay [7]) was “Not Active” throughout. Further, the Ki result in assay [2] was “Not Active”.

On to `CC(=O)Nc1ccc(O)cc1` [ACETAMINOPHEN], for which the IC50 entry in assay [1], in assay [2], in assay [3], in assay [4] (cho-k1), in assay [5] and in assay [6] was “Not Active” in each case. The IC50 entry (against Neutrophil elastase; in assay [7]) was “Not Active” throughout. In addition, in assay [2], the Ki result was “Not Active”.

Consider `COc1cc2c(c3oc(=O)c4c(c13)CCC4=O)[C@@H]1C=CO[C@@H]1O2` [AFLATOXIN], for which the IC50 entry in assay [1], in assay [2], in assay [3], in assay [4] (cho-k1), in assay [5] and in assay [6] was “Not Active” throughout. Besides, the IC50 entry (at Neutrophil elastase; in assay [7]) was “Not Active” in each case. In addition, the Ki entry in assay [1], in assay [2], in assay [3], in assay [4] (cho-k1), in assay [5] and in assay [6] was “Not Active” throughout. The Ki entry (on Neutrophil elastase; in assay [7]) was “Not Active” throughout.

Turning to `N=C(N)NC(=O)c1nc(Cl)c(N)nc1N` [AMILORIDE], the IC50 entry in assay [1], in assay [2], in assay [3], in assay [4] (cho-k1), in assay [5] and in assay [6] was “Not Active” throughout. Besides, the IC50 entry (against Neutrophil elastase; in assay [7]) was “Not Active” throughout. In addition, the Ki result in assay [2] was “Not Active”.

Take `Cc1cc(=O)n(-c2ccccc2)n1C` [ANTIPYRINE]: the IC50 result in assay [1], in assay [2], in assay [3], in assay [4] (cho-k1), in assay [5] and in assay [6] was “Not Active” in each case. For the same molecule, the concentration for half-maximal inhibition (IC50) result (against Neutrophil elastase; in assay [7]) was “Not Active” throughout. Further, the Ki entry in assay [2] is “Not Active”.

On to `CN1C(=O)COc2c(C(=O)NC3CN4CCC3CC4)cc(Cl)cc21` (stereo not given) [AZASETRON], for which the IC50 result in assay [1], in assay [2], in assay [3], in assay [4] (cho-k1), in assay [5] and in assay [6] was “Not Active” in each case. The IC50 entry (at Neutrophil elastase; in assay [7]) was “Not Active” throughout. In addition, in assay [2], the Ki result is reported as “Not Active”.

Take `C[C@H]1C[C@H]2[C@@H]3CCC4=CC(=O)C=C[C@]4(C)[C@@]3(Cl)[C@@H](O)C[C@]2(C)[C@@]1(O)C(=O)CO` [BECLOMETHASONE]: the IC50 result in assay [1], in assay [2], in assay [3], in assay [4] (cho-k1), in assay [5] and in assay [6] was “Not Active” throughout. Further, the IC50 entry (against Neutrophil elastase; in assay [7]) was “Not Active” each time. Moreover, the Ki entry in assay [2] is “Not Active”.

As to `CCOC(=O)[C@H](CCc1ccccc1)N[C@H]1CCc2ccccc2N(CC(=O)O)C1=O` [BENAZEPRIL], the IC50 result in assay [1], in assay [2], in assay [3], in assay [4] (cho-k1), in assay [5] and in assay [6] was “Not Active” throughout. For the same molecule, the IC50 result (against Neutrophil elastase; in assay [7]) was “Not Active” throughout. Further, the Ki result in assay [2] is on record as “Not Active”.

As for `Nc1c(CC(=O)O)cccc1C(=O)c1ccc(Br)cc1` [BROMFENAC], the IC50 result in assay [1], in assay [2], in assay [3], in assay [4] (cho-k1), in assay [5] and in assay [6] was “Not Active” throughout. Moreover, the IC50 entry (against Neutrophil elastase; in assay [7]) was “Not Active” each time. In addition, in assay [2], the Ki result was “Not Active”.

Take `CCCCN1CCCCC1C(=O)Nc1c(C)cccc1C.Cl` (stereo not given) [BUPIVACAINE HYDROCHLORIDE]: the IC50 result in assay [1], in assay [2], in assay [3], in assay [4] (cho-k1), in assay [5] and in assay [6] was “Not Active” in each case. For the same molecule, the IC50 entry (against Neutrophil elastase; in assay [7]) was “Not Active” throughout. Also, the Ki result in assay [2] is “Not Active”.

On to `C[C@@]12C(=O)OC(=O)[C@]1(C)[C@H]1CC[C@@H]2O1` [CANTHARIDIN], for which the IC50 entry in assay [1], in assay [2], in assay [3], in assay [4] (cho-k1), in assay [5] and in assay [6] was “Not Active” throughout. Further, the IC50 entry (on Neutrophil elastase; in assay [7]) was “Not Active” in each case. In addition, in assay [2], the Ki result is listed as “Not Active”.

For the molecule `O=NN(CCCl)C(=O)NCCCl` [CARMUSTINE], the IC50 result in assay [1], in assay [2], in assay [3], in assay [4] (cho-k1), in assay [5] and in assay [6] was “Not Active” each time. The IC50 result (against Neutrophil elastase; in assay [7]) was “Not Active” throughout. In assay [2], the Ki entry is listed as “Not Active”.

Source of the values: ChEMBL document CHEMBL1909046, “DrugMatrix in vitro pharmacology data”.
